Test results published in article PMC10817493, “p-Terphenyl and Diphenyl Ether Derivatives from the Marine-Derived Fungus Aspergillus candidus HM5-4” (Marine Drugs, 2023).

Experiments:
[1] = test system: Neoscytalidium dimidiatum; assay: Antifungal activity, filter paper disc agar diffusion method; format: cell-based; conditions: includes 6 mm disc, 10.0 µg/disc (carbendazim 10 μL, 1.0 mg/mL), mean ± SD, triplicate
Experimental: The antifungal activities of three known compounds (5–7) were determined by the filter paper disc agar diffusion method.
The inhibitory activities of some compounds against six phytopathogenic fungi (Fusarium oxysporum f. sp. cubense, Colletotrichum gloeosporioides, Thielaviopsis paradoxa, Bipolaris cactivora (Petrak) Alcorn, Neoscytalidium dimidiatum, and Colletotrichum scovillei) were evaluated using the filter paper disc agar diffusion method; 250 μL of the fungal solution was aspirated onto the corresponding solid medium and spread evenly with a cotton swab. Samples were dissolved in MeOH to prepare solutions of 1.0 mg/mL and 3.0 mg/mL concentrations. Carbendazim (10 μL, 1.0 mg/mL) was used as a positive control and MeOH (10 μL) was used as negative control. The diameter of the inhibition zones of the plates cultured at 37 °C for 24 h were measured including the 6 mm disc diameter. Experiments were performed in triplicate.

[2] = test system: human HeLa cervical cancer cells; assay: Cytotoxic assay (modified MTT), HeLa; format: cell-based; conditions: mean ± SD of three parallel experiments
Experimental: (§1) All the compounds mentioned above were tested for their cytotoxic activities against human myeloid leukemia cells (K562), human liver cancer cells (BEL-7402), human gastric cancer cells (SGC-7901), human non-small cell lung cancer cells (A549) and human HeLa cervical cancer cells. […] Compared to the cytotoxic activity of 7, the cytotoxic activity of 5 was much stronger.
(§2) All above-mentioned compounds were evaluated for their cytotoxicity in five human tumor cell lines: K562, BEL-7402, SGC-7901, A549 and HeLa cells which were bought from the Cell Bank of Type Culture Collection of the Shanghai Institute of Cell Biology, Chinese Academy of Sciences, using modified MTT methods. The details of this are described in our previous paper. The positive control was cisplatin.

[3] = test system: human liver cancer cells (BEL-7402); assay: Cytotoxic assay (modified MTT), BEL-7402; format: cell-based; conditions: mean ± SD of three parallel experiments
Experimental: as §1, §2

[4] = test system: human gastric cancer cells (SGC-7901); assay: Cytotoxic assay (modified MTT), SGC-7901; format: cell-based; conditions: mean ± SD of three parallel experiments
Experimental: as §1, §2

[5] = test system: human non-small cell lung cancer cells (A549); assay: Cytotoxic assay (modified MTT), A549; format: cell-based; conditions: mean ± SD of three parallel experiments
Experimental: as §1, §2

[6] = test system: human myeloid leukemia cells (K562); assay: Cytotoxic assay (modified MTT), K562; format: cell-based; conditions: mean ± SD of three parallel experiments
Experimental: as §1, §2

α-glucosidase = α-glucosidase (Saccharomyces cerevisiae, UniProt P53341); assay: α-Glucosidase inhibition assay (PNPG substrate); format: biochemical
Experimental: All abovementioned compounds were measured for their inhibitory effects against α-glucosidase, using PNPG as the substrate. The enzyme inhibitory assay was carried out by a formerly described method, with some modifications. Compounds were dissolved in DMSO and six concentration gradients were set in turn. All the assays were performed in 0.1 M sodium phosphate buffer (PH = 6.8). The 10 μL sample was mixed with 100 μL α-glucosidase solution (0.2 U/mL, Sigma, Kanagawa, Japan) and shaken well, then added to a 96-well plate and incubated at 37 °C for 15 min. Subsequently, 40 μL of 2.5 mM 4-nitrophenyl-α-D-glucopyranoside was added and further incubated at 37 °C for 15 min. DMSO was used as a control and the blank wells contained buffer in place of substrate. The OD values were tested at 405 nm with a microplate reader. […] The percentage inhibition was calculated by the following equation:% inhibition = ((ODcontrol − ODsample)/(ODcontrol − ODblank)) × 100

[7] = test system: K562, BEL-7402, SGC-7901, A549 and HeLa cells; assay: Cytotoxic activity, summary over five human tumor cell lines; format: cell-based; conditions: range over compounds 5 and 7 and K562, BEL-7402, SGC-7901, A549, HeLa, read-out: IC50 values, range over the five cancer cell lines
From the text: Two undescribed p-terphenyl derivatives, asperterphenylcins A–B (1–2), and two undescribed diphenyl ether derivatives, asperdiphenylcins A–B (3–4), together with three previously described p-terphenyl derivatives—4″-deoxyterprenin (5), terphenyllin (6), and 3″-hydroxyterphenyllin (7)—were obtained from the solid-rice culture of the marine-derived fungus Aspergillus candidus HM5-4, which was isolated from sponges from the South China Sea. Their structures were elucidated by HRESIMS data and NMR spectroscopic analysis.
as §2

[8] = Homo sapiens, Bel-7402, BEL-7402 cells
[9] = Homo sapiens, SGC-7901, SGC-7901 cells

Sequence of α-glucosidase (P53341 whole entry): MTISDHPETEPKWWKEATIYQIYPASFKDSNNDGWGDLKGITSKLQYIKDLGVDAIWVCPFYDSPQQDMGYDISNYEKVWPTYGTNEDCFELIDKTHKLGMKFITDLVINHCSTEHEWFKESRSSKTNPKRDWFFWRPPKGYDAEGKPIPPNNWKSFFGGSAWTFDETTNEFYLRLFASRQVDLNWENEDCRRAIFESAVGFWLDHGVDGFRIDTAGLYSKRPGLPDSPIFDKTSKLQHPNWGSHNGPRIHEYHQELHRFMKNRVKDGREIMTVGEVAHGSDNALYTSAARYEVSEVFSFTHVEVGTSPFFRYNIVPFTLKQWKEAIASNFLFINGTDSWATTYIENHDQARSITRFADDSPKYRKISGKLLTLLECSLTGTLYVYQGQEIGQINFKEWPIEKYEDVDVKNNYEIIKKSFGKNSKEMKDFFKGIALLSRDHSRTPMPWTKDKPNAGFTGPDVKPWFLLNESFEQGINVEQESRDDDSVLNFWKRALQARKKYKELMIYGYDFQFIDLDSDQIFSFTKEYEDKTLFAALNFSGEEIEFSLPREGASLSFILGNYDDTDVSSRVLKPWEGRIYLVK

For `COC(=O)Nc1nc2ccccc2[nH]1` [Carbendazim, reference compound], the “diameter of inhibition zone against N. dimidiatum” value [1] was 55.00 ± 0.82 mm.

`N.N.[Cl][Pt][Cl]` [Cisplatin, cisplatin, reference compound] showed an IC50 [2] of 11.3 ± 0.15 µM, an IC50 ([3]; BEL-7402 cells) of 4.02 ± 0.06 µM and an IC50 ([4]; SGC-7901 cells) of 4.11 ± 0.02 µM. It also gave an IC50 ([5]; A549 cells) of 1.93 ± 0.02 µM and an IC50 [6] of 3.08 ± 0.05 µM.

In the case of `COc1ccc(O)c(-c2c(OC)cc(-c3ccc(O)cc3)c(OC)c2O)c1` [Compound 1, Asperterphenylcin A], the IC50 ([2]; Homo sapiens) is reported as > 20 µg/mL, the IC50 [3, 8] is reported as > 20 µg/mL and the IC50 [4, 9] is reported as > 20 µg/mL. The IC50 ([5]; Homo sapiens, A549, A549 cells) was > 20 µg/mL and the IC50 ([6]; Homo sapiens) was > 20 µg/mL.

With `COc1c(-c2ccc(O)cc2)cc(O)c(-c2ccc(O)cc2)c1OC` [Compound 2, Asperterphenylcin B] the IC50 ([2]; Homo sapiens) was > 20 µg/mL, the IC50 [3, 8] was > 20 µg/mL and the IC50 [4, 9] was > 20 µg/mL. For the same molecule, the IC50 ([5]; Homo sapiens, A549, A549 cells) was > 20 µg/mL and the IC50 ([6]; Homo sapiens) was > 20 µg/mL.

With `COc1cccc2c1C(=O)OCc1cc(COC(C)=O)cc(O)c1O2` [Compound 3, Asperdiphenylcin A] the IC50 ([2]; Homo sapiens) was > 20 µg/mL, the IC50 [3, 8] was > 20 µg/mL and the IC50 [4, 9] was > 20 µg/mL. For the same molecule, the IC50 ([5]; Homo sapiens, A549, A549 cells) was > 20 µg/mL, the “α-glucosidase inhibitory activity (in words)” value (α-glucosidase) was “no α-glucosidase inhibitory activity” and the IC50 ([6]; Homo sapiens) was > 20 µg/mL.

For `COc1cccc2c1C(=O)OCc1cc(C(=O)O)cc(O)c1O2` [Compound 4, Asperdiphenylcin B], the IC50 ([2]; Homo sapiens) was > 20 µg/mL, the IC50 [3, 8] was > 20 µg/mL and the IC50 [4, 9] was > 20 µg/mL. For the same molecule, the IC50 ([5]; Homo sapiens, A549, A549 cells) was > 20 µg/mL, the “α-glucosidase inhibitory activity (in words)” value (α-glucosidase) was “no α-glucosidase inhibitory activity” and the IC50 ([6]; Homo sapiens) was > 20 µg/mL.

`COc1cc(-c2ccccc2)c(OC)c(O)c1-c1ccc(OCC=C(C)C)c(O)c1` [Compound 5, 4″-deoxyterprenin] was tested, and the IC50 ([2]; Homo sapiens) was 44.77 ± 0.13 µM, the IC50 [3, 8] was 6.69 ± 0.12 µM and the IC50 [4, 9] was 3.67 ± 0.17 µM. The IC50 ([5]; Homo sapiens, A549, A549 cells) was 3.32 ± 0.1 µM, the “diameter of inhibition zone against N. dimidiatum” value [1] was 31.67 ± 2.36 mm and the “α-glucosidase inhibitory activity (in words)” value (α-glucosidase) was “completely disappeared”. The IC50 [7] was 3.32 to 60.4 µM and the IC50 ([6]; Homo sapiens) was 15.03 ± 0.14 µM.

For `COc1cc(-c2ccc(O)cc2)c(OC)c(O)c1-c1ccc(O)cc1` [Compound 6, terphenyllin], the IC50 ([2]; Homo sapiens) was > 20 µg/mL, the IC50 [3, 8] was > 20 µg/mL and the IC50 [4, 9] was > 20 µg/mL. The IC50 ([5]; Homo sapiens, A549, A549 cells) was > 20 µg/mL and the IC50 ([6]; Homo sapiens) was > 20 µg/mL.

`COc1cc(-c2ccc(O)c(O)c2)c(OC)c(O)c1-c1ccc(O)cc1` [Compound 7, 3″-hydroxyterphenyllin] was tested, and the IC50 ([2]; Homo sapiens) was 53.6 ± 0.73 µM, the IC50 [7] was 3.32 to 60.4 µM and the IC50 ([6]; Homo sapiens) was 34 ± 0.4 µM.
